# Measured values from patent US8936941B2, “Compositions useful for cancer detection and treatment, a cancer stem cell model, and methods of production and use thereof” (priority 2008, dated 2015).
# Tests used:
# DCAMKL-1 = assay: siRNA knockdown of DCAMKL-1 in AsPC-1 pancreatic cancer cells, real-time RT-PCR; assay type: cell-based, human; details: AsPC-1 cells
# Method: Cell Culture: AsPC-1 and BxPC3 human pancreatic adenocarcinoma cell lines were obtained from the American Type Culture Collection and grown in Dulbecco's modified Eagle medium (DMEM) supplemented with 10% fetal bovine serum and 100 U/mL penicillin-streptomycin in a humidified chamber at 37° C. with 5% CO2.
# Silencer RNA: DCAMKL-1 small interfering RNA (siRNA) (si-DCAMKL-1) sequence targeting the coding region of DCAMKL-1 (accession No. NM_004734; SEQ ID NO:1) ([…]tt (SEQ ID NO:3)) and scrambled siRNAs (si-Scr) not matching any of the human genes were obtained (Ambion Inc, Austin, Tex.) and transfected using siPORT™ NeoFX™ (Ambion, Inc).
# Real-time Reverse Transcription-Polymerase Chain Reaction Analyses: Total RNA isolated from human pancreatic cancer cells or cells sorted from normal mouse pancreas were subjected to reverse transcription with Superscript II RNase H-Reverse Transcriptase and random hexanucleotide primers (Invitrogen, Carlsbad, Calif.). The complementary DNA (cDNA) was subsequently used to perform real-time polymerase chain reaction (PCR) by SYBR chemistry (SYBR Green I; Molecular Probes, Eugene, Oreg.) for specific transcripts using gene specific primers and Jumpstart Taq DNA polymerase (Sigma—Aldrich, St. Louis, Mo.). […] The changes in mRNA were expressed as fold change relative to control with ±SEM value.
# miRNA Analysis: total RNA isolated from human pancreatic cancer cell lines or cells sorted from normal mouse pancreas was subjected to reverse transcription with Superscript II RNase H-Reverse Transcriptase and random hexanucleotide primers (Invitrogen). The cDNA was subsequently used to perform real-time PCR by SYBR chemistry (SYBR Green I; Molecular Probes) for pri-let-7a, pri-miR-144 and pri-miR-200a transcripts using specific primers and Jumpstart Taq DNA polymerase (Sigma—Aldrich). […] The changes in pri-miRNA were expressed as fold change relative to control with ±SEM values.
# PICSCs [1] = assay: Growth and survival of PICSCs after drug treatment; assay type: cell-based, mouse; details: siRNA transfection, 10 nM
# Method: The PICSCs cells were treated with 100 μM drug (suprapharmacological dose) for 48 hours, and their growth and survival were evaluated. […] Moreover, the in vitro testing strategies allows for a mechanistic study of such compounds.
# PICSC tumor xenografts = assay: PICSC generated isograft tumor growth in mice; assay type: in vivo; details: siRNA injected from day 15, 5 times at an interval of 3 days
# Method: To determine whether targeted DCAMKL-1 downregulation and/or Notch inhibition affected […] generated isograft tumor growth, mice were treated with siRNA to DCAMKL-1 or the Notch inhibitor DAPT. After the tumors were allowed to develop (15 days), siRNA was injected a total of 5 times at an interval of 3 days as described earlier.
# PICSCs [2] = assay: LIVE/DEAD Viability/Cytotoxicity Assay on PICSCs; assay type: cell-based, mouse; details: 48 hours, single agent
# Method: This Example is directed to stem cell assays utilizing PICSCs generated in accordance with the presently disclosed and claimed inventive concept(s). The PICSCs were generated as described herein above (i.e., transformation of NIH-3T3 cells with RBM3 gene, followed by transplantation into a nude mouse, then sorting of cells obtained from generated tumors utilizing DCAMKL-1).
# The PICSCs were exposed to various compounds/anti-cancer agents, and cell viability assays were then performed using the LIVE/DEAD® Viability/Cytotoxicity Assay from Molecular Probes/Invitrogen (Eugene, Oreg.). The LIVE/DEAD® Viability/Cytotoxicity Assay is an assay that provides a two-color fluorescence cell viability that is based on the simultaneous determination of both live and dead cells.
# Briefly, PICSCs cells were grown in a 96 well microtitre plate ([…], Newton, N.C.) to about 40% confluency and treated with anti-cancer agents/compounds for 48 hours. Subsequently, chromogenic substrates Calcein AM and Ethidium homodimer-1 (EthD-1) was added to the cells. Calcein AM is well retained within the live cells, producing uniform green fluorescence in live cells (measured at 515 nM). EthD-1 enters cells with damaged membranes and undergoes an enhancement of fluorescence upon binding to nucleic acids, thereby producing a bright red fluorescence in dead cells (measured at 617 nM). The fluorescence measurement was carried out using a microtitre plate reader (Synergy HT, BIO-TEK, Vinooski, Vt.).
# In FIGS. 70-84, the PICSCs were treated with increasing concentrations of various compounds or combinations of compounds for 48 hours, and the data presented therein is represented as a % Dead/Live cells ratio following said treatment. […] Values in each figure are given as average±Standard Error Mean, and asterisks denote statistically significant differences (*p<0.01) compared with control.
# Chain of DCAMKL-1 (O15075 other isoform, or with tags, fused parts or gaps): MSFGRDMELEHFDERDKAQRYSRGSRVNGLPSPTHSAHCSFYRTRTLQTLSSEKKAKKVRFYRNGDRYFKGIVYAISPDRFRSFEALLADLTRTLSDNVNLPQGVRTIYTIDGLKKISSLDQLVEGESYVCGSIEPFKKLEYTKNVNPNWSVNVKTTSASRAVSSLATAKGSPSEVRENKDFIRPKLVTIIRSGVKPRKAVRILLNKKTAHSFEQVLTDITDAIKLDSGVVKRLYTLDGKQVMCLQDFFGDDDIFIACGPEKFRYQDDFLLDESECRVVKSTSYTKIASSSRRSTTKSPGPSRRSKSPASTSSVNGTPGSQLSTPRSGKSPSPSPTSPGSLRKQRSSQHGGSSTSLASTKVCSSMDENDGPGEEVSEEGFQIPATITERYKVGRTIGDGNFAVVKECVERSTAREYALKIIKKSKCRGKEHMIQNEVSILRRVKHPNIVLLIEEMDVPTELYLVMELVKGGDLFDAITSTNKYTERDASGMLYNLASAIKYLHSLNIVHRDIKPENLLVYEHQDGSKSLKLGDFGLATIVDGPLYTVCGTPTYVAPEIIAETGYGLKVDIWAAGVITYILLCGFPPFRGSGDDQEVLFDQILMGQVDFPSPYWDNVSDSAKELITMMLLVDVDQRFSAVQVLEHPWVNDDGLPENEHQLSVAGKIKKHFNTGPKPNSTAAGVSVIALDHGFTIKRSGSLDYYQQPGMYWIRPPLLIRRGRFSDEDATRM
substance,measurement,setting,value
"si-DCAMKL-1: siRNA targeting the coding region of DCAMKL-1 (NM_004734), sequence GGGAGUGAGAACAAUCUAC (SEQ ID NO:3) (chemistry not given here; listed as Homo sapiens)",E-cadherin expression,DCAMKL-1,upregulation
same,Notch-1 expression,DCAMKL-1,significant and a dose dependent downregulation
same,Slug mRNA expression,DCAMKL-1,downregulation
same,Snail mRNA expression,DCAMKL-1,downregulation
same,Twist mRNA expression,DCAMKL-1,downregulation
same,ZEB1 expression,DCAMKL-1,downregulation
same,ZEB2 expression,DCAMKL-1,downregulation
same,c-Myc expression,DCAMKL-1,significant and a dose dependent downregulation
same,pri-miR-200a expression,DCAMKL-1,upregulation
same,increase in pri-miR-144 miRNA expression,DCAMKL-1; compared to control and siSCR,2.5 fold
same,reduction of c-Myc mRNA expression,DCAMKL-1; compared to control and siSCR,50%
same,reduction in KRAS mRNA expression,DCAMKL-1; compared to control or siSCR,45%
same,reduction in Notch-1 mRNA,DCAMKL-1; compared to control or siSCR,50%
same,DCAMKL-1 mRNA expression,DCAMKL-1; compared to siSCR or untreated,decreases
same,DCAMKL-1 protein,DCAMKL-1; compared to siSCR or untreated,decreases
same,induction of pri-let-7a miRNA,DCAMKL-1; real-time RT-PCR,3 fold
same,"neurite formation, cell growth and cell death of PICSCs",PICSCs [1],"inhibited neurite formation, suppressed cell growth and induced cell death"
same,isograft tumor growth,PICSC tumor xenografts,growth arrest
same,PICSC cell death (% Dead/Live cells ratio),PICSCs [2],increasing levels of PICSC cell death
